In patent US8754068B2, “Modified C-3 betulinic acid derivatives as HIV maturation inhibitors” (priority 2010, dated 2014):

Tested on: recombinant NL4-3 virus (Renilla luciferase in nef, Gag P373S)
Test: HIV cell culture assay (luciferase reporter virus in MT-2 cells)
Type: cell-based
Conditions: NL43
Protocol: HIV cell culture assay—MT-2 cells and 293T cells were obtained from the NIH AIDS Research and Reference Reagent Program. MT-2 cells were propagated in RPMI 1640 media supplemented with 10% heat inactivated fetal bovine serum, […]. The 293T cells were propagated in DMEM media supplemented with 10% heat inactivated fetal bovine serum (FBS), 100 units/ml penicillin G and 100 μg/ml streptomycin. The proviral DNA clone of NL4-3 was obtained from the NIH AIDS Research and Reference Reagent Program. A recombinant NL4-3 virus, in which a section of the nef gene from NL4-3 was replaced with the Renilla luciferase gene, was used as a reference virus. In addition, residue Gag P373 was converted to P373S. Briefly, the recombinant virus was prepared by transfection of the altered proviral clone of NL4-3. Transfections were performed in 293T cells using LipofectAMINE PLUS from Invitrogen (Carlsbad, Calif.), according to manufacturer's instruction. The virus was titered in MT-2 cells using luciferase enzyme activity as a marker. Luciferase was quantitated using the Dual Luciferase kit from Promega (Madison, Wis.), with modifications to the manufacturer's protocol. The diluted Passive Lysis solution was pre-mixed with the re-suspended Luciferase Assay Reagent and the re-suspended Stop & Glo Substrate (2:1:1 ratio). Fifty (50) μL of the mixture was added to each aspirated well on assay plates and luciferase activity was measured immediately on a Wallac TriLux (Perkin-Elmer). Antiviral activities of inhibitors toward the recombinant virus were quantified by measuring luciferase activity in cells infected for 4-5 days with NLRluc recombinants in the presence serial dilutions of the inhibitor. Table 1 is the key for the data in Table 2.

`C=C(C)[C@@H]1CC[C@]2(CO)CC[C@]3(C)[C@H](CC[C@@H]4[C@@]5(C)CC=C(c6ccc(O)nc6)C(C)(C)[C@@H]5CC[C@]43C)[C@@H]12` [Example 5e, 5-((1R,3aS,5aR,5bR,7aR,11aS,13aR,13bR)-3a-(hydroxymethyl)-5a,5b,8,8,11a-pentamethyl-1-(prop-1-en-2-yl)-2,3,3a,4,5,5a,5b,6,7,7a,8,11,11a,11b,12,13,13a,13b-octadecahydro-1H-cyclopenta[a]chrysen-9-yl)pyridin-2-ol] and `C=C(C)[C@@H]1CC[C@]2(CO)CC[C@]3(C)[C@H](CC[C@@H]4[C@@]5(C)CC=C(c6ccc(O)c(Cl)c6)C(C)(C)[C@@H]5CC[C@]43C)[C@@H]12` [Example 5g, 2-chloro-4-((1R,3aS,5aR,5bR,7aR,11aS,11bR,13aR,13bR)-3a-(hydroxymethyl)-5a,5b,8,8,11a-pentamethyl-1-(prop-1-en-2-yl)-2,3,3a,4,5,5a,5b,6,7,7a,8,11,11a,11b,12,13,13a,13b-octadecahydro-1H-cyclopenta[a]chrysen-9-yl)phenol] cannot be ordered by EC50: over 1 µM for the first, over 1 µM for the second.

`C=C(C)[C@@H]1CC[C@]2(CO)CC[C@]3(C)[C@H](CC[C@@H]4[C@@]5(C)CC=C(c6cc(C(=O)O)no6)C(C)(C)[C@@H]5CC[C@]43C)[C@@H]12` [Example 9, 5-((1R,3aS,5aR,5bR,7aR,11aS,11bR,13aR,13bR)-3a-(hydroxymethyl)-5a,5b,8,8,11a-pentamethyl-1-(prop-1-en-2-yl)-2,3,3a,4,5,5a,5b,6,7,7a,8,11,11a,11b,12,13,13a,13b-octadecahydro-1H-cyclopenta[a]chrysen-9-yl)isoxazole-3-carboxylic acid] and `C=C(C)[C@@H]1CC[C@]2(CO)CC[C@]3(C)[C@H](CC[C@@H]4[C@@]5(C)CC=C(c6csc(C(=O)O)c6)C(C)(C)[C@@H]5CC[C@]43C)[C@@H]12` [Example 5d, 4-((1R,3aS,5aR,5bR,7aR,11aS,11bR,13bR)-3a-(hydroxymethyl)-5a,5b,8,8,11a-pentamethyl-1-(prop-1-en-2-yl)-2,3,3a,4,5,5a,5b,6,7,7a,8,11,11a,11b,12,13,13a,13b-octadecahydro-1H-cyclopenta[a]chrysen-9-yl)thiophene-2-carboxylic acid] cannot be ordered by EC50: under 1 µM for the first, under 1 µM for the second.

Going from `C=C(C)[C@@H]1CC[C@]2(CO)CC[C@]3(C)[C@H](CC[C@@H]4[C@@]5(C)CC=C(c6cnc(C(=O)O)nc6)C(C)(C)[C@@H]5CC[C@]43C)[C@@H]12` [Example 5q, 5-((1R,3aS,5aR,5bR,7aR,11aS,11bR,13aR,13bR)-3a-(hydroxymethyl)-5a,5b,8,8,11a-pentamethyl-1-(prop-1-en-2-yl)-2,3,3a,4,5,5a,5b,6,7,7a,8,11,11a,11b,12,13,13a,13b-octadecahydro-1H-cyclopenta[a]chrysen-9-yl)pyrimidine-2-carboxylic acid] to `C=C(C)[C@@H]1CC[C@]2(CO)CC[C@]3(C)[C@H](CC[C@@H]4[C@@]5(C)CC=C(c6ccc(C(=O)O)c(Cl)c6)C(C)(C)[C@@H]5CC[C@]43C)[C@@H]12` [Example 5a, 2-chloro-4-((1R,3aS,5aR,5bR,7aR,11aS,11bR,13bR)-3a-(hydroxymethyl)-5a,5b,8,8,11a-pentamethyl-1-(prop-1-en-2-yl)-2,3,3a,4,5,5a,5b,6,7,7a,8,11,11a,11b,12,13,13a,13b-octadecahydro-1H-cyclopenta[a]chrysen-9-yl)benzoic acid], the EC50 falls from over 1 µM to under 1 µM.

`C=C(C)[C@@H]1CC[C@]2(C(=O)O)CC[C@]3(C)[C@H](CC[C@@H]4[C@@]5(C)CC=C(c6ccc(CCC(=O)O)cc6)C(C)(C)[C@@H]5CC[C@]43C)[C@@H]12` [Example 4a, (1R,3aS,5aR,5bR,7aR,11aS,11bR,13aR,13bR)-9-(4-(2-carboxyethyl)phenyl)-5a,5b,8,8,11a-pentamethyl-1-(prop-1-en-2-yl)-2,3,3a,4,5,5a,5b,6,7,7a,8,11,11a,11b,12,13,13a,13b-octadecahydro-1H-cyclopenta[a]chrysene-3a-carboxylic acid] and `C=C(C)[C@@H]1CC[C@]2(C(=O)O)CC[C@]3(C)[C@H](CC[C@@H]4[C@@]5(C)CC=C(c6ccc(C(=O)O)cc6)C(C)(C)[C@@H]5CC[C@]43C)[C@@H]12` [Example 2b, (1R,3aS,5aR,5bR,7aR,11aS,13aR,13bR)-9-(4-carboxyphenyl)-5a,5b,8,8,11a-pentamethyl-1-(prop-1-en-2-yl)-2,3,3a,4,5,5a,5b,6,7,7a,8,11,11a,11b,12,13,13a,13b-octadecahydro-1H-cyclopenta[a]chrysene-3a-carboxylic acid] cannot be ordered by EC50: under 1 µM for the first, under 1 µM for the second.

`C=C(C)[C@@H]1CC[C@]2(C(=O)O)CC[C@]3(C)[C@H](CC[C@@H]4[C@@]5(C)CC=C(c6ccc(C(=O)O)s6)C(C)(C)[C@@H]5CC[C@]43C)[C@@H]12` [Example 4n, 5-((1R,3aS,5aR,5bR,7aR,11aS,11bR,13aR,13bR)-3a-carboxy-5a,5b,8,8,11a-pentamethyl-1-(prop-1-en-2-yl)-2,3,3a,4,5,5a,5b,6,7,7a,8,11,11a,11b,12,13,13a,13b-octadecahydro-1H-cyclopenta[a]chrysen-9-yl)thiophene-2-carboxylic acid] and `C=C(C)[C@@H]1CC[C@]2(C(=O)O)CC[C@]3(C)[C@H](CC[C@@H]4[C@@]5(C)CC=C(c6ccc(C(=O)O)c(Cl)c6)C(C)(C)[C@@H]5CC[C@]43C)[C@@H]12` [Example 4o, (1R,3aS,5aR,5bR,7aR,11aS,11bR,13aR,13bR)-9-(4-carboxy-3-chlorophenyl)-5a,5b,8,8,11a-pentamethyl-1-(prop-1-en-2-yl)-2,3,3a,4,5,5a,5b,6,7,7a,8,11,11a,11b,12,13,13a,13b-octadecahydro-1H-cyclopenta[a]chrysene-3a-carboxylic acid] cannot be ordered by EC50: under 1 µM for the first, under 1 µM for the second.

`C=C(C)[C@@H]1CC[C@]2(CO)CC[C@]3(C)[C@H](CC[C@@H]4[C@@]5(C)CC=C(c6ccc(C(=O)O)c(OC)c6)C(C)(C)[C@@H]5CC[C@]43C)[C@@H]12` [Example 5o, 4-((1R,3aS,5aR,5bR,7aR,11aS,11bR,13aR,13bR)-3a-(hydroxymethyl)-5a,5b,8,8,11a-pentamethyl-1-(prop-1-en-2-yl)-2,3,3a,4,5,5a,5b,6,7,7a,8,11,11a,11b,12,13,13a,13b-octadecahydro-1H-cyclopenta[a]chrysen-9-yl)-2-methoxybenzoic acid] and `C=C(C)[C@@H]1CC[C@]2(CO)CC[C@]3(C)[C@H](CC[C@@H]4[C@@]5(C)CC=C(c6ccc(C(=O)O)c(C(F)(F)F)c6)C(C)(C)[C@@H]5CC[C@]43C)[C@@H]12` [Example 5s, 4-((1R,3aS,5aR,5bR,7aR,11aS,11bR,13aR,13bR)-3a-(hydroxymethyl)-5a,5b,8,8,11a-pentamethyl-1-(prop-1-en-2-yl)-2,3,3a,4,5,5a,5b,6,7,7a,8,11,11a,11b,12,13,13a,13b-octadecahydro-1H-cyclopenta[a]chrysen-9-yl)-2-(trifluoromethyl)benzoic acid] cannot be ordered by EC50: 0.5 µM for the first, under 1 µM for the second.

`C=C(C)[C@@H]1CC[C@]2(C(=O)O)CC[C@]3(C)[C@H](CC[C@@H]4[C@@]5(C)CC=C(c6ccc(C(=O)OC)cc6)C(C)(C)[C@@H]5CC[C@]43C)[C@@H]12` [Example 7, (1R,3aS,5aR,5bR,7aR,11aS,11bR,13aR,13bR)-9-(4-(methoxycarbonyl)phenyl)-5a,5b,8,8,11a-pentamethyl-1-(prop-1-en-2-yl)-2,3,3a,4,5,5a,5b,6,7,7a,8,11,11a,11b,12,13,13a,13b-octadecahydro-1H-cyclopenta[a]chrysene-3a-carboxylic acid] and `C=C(C)[C@@H]1CC[C@]2(C(=O)O)CC[C@]3(C)[C@H](CC[C@@H]4[C@@]5(C)CC=C(c6ccc(S(C)(=O)=O)cc6)C(C)(C)[C@@H]5CC[C@]43C)[C@@H]12` [Example 4j, (1R,3aS,5aR,5bR,7aR,11aS,11bR,13aR,13bR)-5a,5b,8,8,11a-pentamethyl-9-(4-(methylsulfonyl)phenyl)-1-(prop-1-en-2-yl)-2,3,3a,4,5,5a,5b,6,7,7a,8,11,11a,11b,12,13,13a,13b-octadecahydro-1H-cyclopenta[a]chrysene-3a-carboxylic acid] cannot be ordered by EC50: over 1 µM for the first, over 1 µM for the second.

`C=C(C)[C@@H]1CC[C@]2(CO)CC[C@]3(C)[C@H](CC[C@@H]4[C@@]5(C)CC=C(c6ccc(O)c(F)c6)C(C)(C)[C@@H]5CC[C@]43C)[C@@H]12` [Example 5f, 2-fluoro-4-((1R,3aS,5aR,5bR,7aR,11aS,11bR,13aR,13bR)-3a-(hydroxymethyl)-5a,5b,8,8,11a-pentamethyl-1-(prop-1-en-2-yl)-2,3,3a,4,5,5a,5b,6,7,7a,8,11,11a,11b,12,13,13a,13b-octadecahydro-1H-cyclopenta[a]chrysen-9-yl)phenol] and `CC(C)[C@@H]1CC[C@]2(C(=O)O)CC[C@]3(C)[C@H](CC[C@@H]4[C@@]5(C)CC[C@H](c6ccc(C(=O)O)cc6)C(C)(C)[C@@H]5CC[C@]43C)[C@@H]12` [Example 3b, (1S,3aS,5aR,5bR,7aS,9S,11aS,11bR,13aR,13bR)-9-(4-carboxyphenyl)-1-isopropyl-5a,5b,8,8,11a-pentamethylicosahydro-1H-cyclopenta[a]chrysene-3a-carboxylic acid] cannot be ordered by EC50: under 1 µM for the first, under 1 µM for the second.
